Measurements: patent publication US9872863B2, “Targeting primary cilia to treat glaucoma” (Indiana University Research and Technology Corporation, priority 2014, dated 2018)

What was measured:
[1] = tested on: wpk−/− rats; assay: Intraocular pressure in wpk−/− rats (Tonolab tonometer); format: in vivo, rat; conditions: 17-day-old wpk−/− rats, systemic, once per day for 8 days, agonist 50 ng/g, measured 24 hours after treatment
Method: All animal experiments followed the guidelines of the ARVO Statement for the Use of Animals in Ophthalmic and Vision Research and were approved by the Institutional Animal Care and Use Committee of Indiana University School of Medicine. Wpk rats, a polycystic kidney disease model, were housed under a 12-hour light/dark cycle with free access to water and food (Smith et al., Nat. Genet. 2006, 38(2):191-196). For […], 50 mg/ml sodium pentobarbital was injected.
(§1) lntraocular Pressure (TOP) was measured with the TONOLAB tonometer TV02 (Helsinki, Finland) with rats under topical anesthesia. IOP was measured using six valid rebound measurements of the device from the eye, where the mean of the middle five readings was taken for one summary measurement. A single set of readings was collected with the best reproducibility indicator during the IOP measurements.
Based on the results presented above, the functional consequences of activating TRPV4 on eye pressure were therefore assessed in the wpk rat model. The wpk rat is a well-established model for studying ciliopathy, as these animals develop hydrocephalus that responds to cilia-based therapy.
8-day old wpk^−/− rats were treated with sham, TRPV4 agonist (50 ng/g, GSK 1016790A), or antagonist (HC 067047) once per day for 8 days. […]

[2] = tested on: HTM cells; assay: Pressure-induced TNFα, TGFβ1 and Gli1 mRNA in serum-starved HTM cells (RT-PCR); format: cell-based, human; conditions: 50 mmHg for 3 hours
Method: Total RNA was extracted using the RNAEASY® kit (Qiagen). Purified RNA was quantitated with the NANODROP® 2000 (Thermo Fisher Scientific, Lafayette, Colo.). Reverse transcription of total RNA was done using SUPERSCRIPT cDNA synthesis kit (Invitrogen) with random hexamers. Quantitative RT-PCR was performed using the RQ and ΔΔCt method on a Step One Real-Time PCR machine (Bio-Rad Laboratories, Hercules, Calif.). Each assay was performed in triplicate with Power SYBR green MasterMix (SA Biosciences, Frederick, Md.).
To analyze the cellular changes in the TM cells, a hydrostatic pressure chamber was developed similar to that of Mandel et al. (Invest. Ophthalmol. Vis. Sci. 2010, 51(6):3129-3138). The cells were grown in 60 mm polycarbonate dishes sealed to attach to a plastic column filled with 400 mL DMEM/F12 media with or without serum for cilia induction. The column was temperature controlled at 37° C. in humidified chamber. […]
HTM cells were serum-starved for 48 hours and treated with saline, saline plus 50 mmHg pressure, chlorohydrate, and chlorohydrate plus 50 mmHg pressure for 3 hours. Levels of mRNA of TNFα, TGFβ1 and Gli1 were then measured. […] Serum-starved HTM cells were also placed under 50 mmHg pressure for 0, 10, 20, 40, 60 and 80 minutes and analyzed for expression of TNFα and IL-33. […]

[3] = target: T1, TRPV4 (Homo sapiens, UniProt Q9HBA0); assay: Ca2+ imaging, Fura-2 F340/380 ratio after TRPV4 agonist; format: cell-based; design: TRPV4-induced calcium flux, ratio of F340/380: dose or concentration left out as unconfirmed
T1 construct: endogenous in cells; host or cells: HTM cells, NHF fibroblasts, NHKC keratinocytes, Lowe syndrome patient fibroblasts and keratinocytes
T1 sequence (Q9HBA0 whole entry): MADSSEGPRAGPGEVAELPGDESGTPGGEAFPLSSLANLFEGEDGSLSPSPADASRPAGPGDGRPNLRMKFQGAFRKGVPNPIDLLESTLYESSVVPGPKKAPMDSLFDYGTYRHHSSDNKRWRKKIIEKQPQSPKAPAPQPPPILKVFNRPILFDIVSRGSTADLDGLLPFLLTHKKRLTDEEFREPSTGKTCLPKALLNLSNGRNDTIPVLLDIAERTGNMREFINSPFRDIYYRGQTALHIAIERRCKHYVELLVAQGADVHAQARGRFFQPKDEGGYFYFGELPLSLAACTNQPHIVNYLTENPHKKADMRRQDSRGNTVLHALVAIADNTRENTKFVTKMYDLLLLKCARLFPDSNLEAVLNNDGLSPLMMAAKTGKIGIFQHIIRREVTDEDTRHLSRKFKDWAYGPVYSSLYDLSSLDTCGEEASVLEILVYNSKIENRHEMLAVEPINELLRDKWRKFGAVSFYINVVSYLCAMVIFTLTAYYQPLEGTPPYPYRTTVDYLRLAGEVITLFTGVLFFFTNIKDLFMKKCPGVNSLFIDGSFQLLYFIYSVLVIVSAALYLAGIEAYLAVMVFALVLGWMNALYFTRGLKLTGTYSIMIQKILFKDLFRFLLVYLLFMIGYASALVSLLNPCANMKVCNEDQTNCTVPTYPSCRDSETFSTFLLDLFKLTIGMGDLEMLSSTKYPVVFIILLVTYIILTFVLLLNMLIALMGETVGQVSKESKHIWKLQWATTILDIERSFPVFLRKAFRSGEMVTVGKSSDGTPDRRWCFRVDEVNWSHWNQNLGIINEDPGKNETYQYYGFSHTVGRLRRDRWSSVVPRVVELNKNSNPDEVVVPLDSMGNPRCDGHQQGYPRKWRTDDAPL
Method: Flow-induced Ca^2+ signals were examined in the presence and absence of cilia in HTM cells. To remove primary cilia, 2 mM aqueous chlorohydrate (Sigma, St. Louis) was added for 48 hours. Prior to flow experiments, cells were washed three times with PBS, and fresh medium was added for 24 hours. The Fura-2 loaded HTM cells were subjected to laminar flow rates as indicated. Single-cell analysis of the Ca^2+ signals (ratio 340/380 nm) of the same experiment was obtained. Intracellular Ca^2+ changes were monitored by ratiometric imaging of Fura-2 AM fluorescence in the HTM cells. HTM cells were loaded with Fura-2 AM for 1 hour at 37° C. in PBS with 40 μM fura-2 AM, 0.33 mM pyruvate, 0.901 mM Ca^2+, 0.5 mM Mg^2+, 5.5 mM glucose, and 0.1% BSA. The Fura-2 AM-loaded HTM cells were washed in PBS and were mounted in the chamber. Ca^2+ imaging experiments were performed using a monochromator-based TILL PHOTONICS imaging system, which was attached to an inverted ZEISS microscope equipped (×2.5 objective) with a back-illuminated ANDOR CCD camera. Fura-2 AM was alternately excited at 345 nm and 380 nm and the emitted light was collected using a 510-nm long-pass filter. The TILLVISION software (TILL PHOTONICS) was used to acquire all fluorescence imaging experiments and to perform the analysis of images. Images were acquired every 2 seconds. The background fluorescence was subtracted and the intracellular Ca^2+ concentration ([Ca^2+]i) was calculated using the equation: [Ca^2+]i=Kd×[(R−Rmin)/(Rmax−R)]×[Fmax(380)/Fmin(380)](R is the fluorescence ratio, Rmax is the ratio at saturation calcium concentration, Rmin is the ratio at zero calcium in the medium, Fmin(380) is the fluorescence at 380 nm at zero Ca^2+ concentration in the medium, and Fmax(380) is the fluorescence at 380 nm at saturation Ca^2+ concentration) (Touw et al., Am. J. Physiol. Gastro. Liver Physiology 2012, 302(1):G66-76).
For calcium flow experiments, HTM cells and NHF cells were first incubated in 3% BSA in PBS and stained with Fura2 dye for 1 hour. Ca^2+ flux was induced by laminar flow gradient (16 μl/s) over the cell surface, which bends cilia, followed by 10 mM KCl. Cells were imaged for calcium during flow. Calcium flux was also measured by F340/380 ratio in HTM cells and NHF cells after treatment with the 0.1 μM TRPV4 agonist GSK1016790A. Results presented represent calcium mobilization in three independent experiments.
HTM cells treated, with or without pressure, were further evaluated to determine their response to TRPV4 agonist. HTM cells were serum-starved for 48 hours to induce ciliogenesis, followed by treatment with 0 or 50 mmHg for 3 hours. Cells were loaded with Fura-2 AM dye for 1 hour, followed with […] TRPV4 agonist GSK1016790A.
OCRL is required for TRPV4-mediated calcium signalling in HTM cells. HTM cells were additionally treated with OCRL siRNA or scrambled control siRNA, with or without wild-type OCRL or OCRL-D499A rescue. 0.1 μM TRPV4 agonist GSK1016790A treatment was performed and calcium mobilization by F340/380 (value X 1000) was measured and shown.
Additionally, a Lowe syndrome patient's keratinocytes were isolated and assayed for their response to TRPV4 treatment. NHKC or Lowe keratinocytes were serum-starved, loaded with Fura-2 AM and then treated with 0.1 μM TRPV4 agonist GSK1016790A. F340/380 ratio (value X 1000) was determined.

[4] = tested on: C57BL/6 WT mice; assay: Intraocular pressure in C57BL/6 WT mice, 4 days of treatment; format: in vivo, mouse; conditions: nine-week old C57BL/6 WT mice, systemic, daily over 4 days, 24 hours after treatment; decrease from 12.4
Method: as §1
This finding was confirmed in wild-type C5BL/6 mice treated with systemic TRPV4 agonist, antagonist, or sham control, daily over 4 days. Nine-week old C57BL/6 WT mice were treated with sham, TRPV/4 agonist GSK 1016790A or antagonist HC 067047 for 4 days. IOP was measured using a Tonolab tonometer 24 hours after treatment. As shown in FIG. 12D article, a decrease in IOP from 12.4 to 10.3 mmHg was seen.

| Compound | Intraocular pressure [1] | Elevation of gene transcription (TNFα, TGFβ1, Gli1 mRNA) in response to pressure [2] | Calcium mobilization by F340/380 ([3]; HTM cells treated with OCRL siRNA, 0.1 μM agonist, rescued by wild-type OCRL, not by D499A mutant) | Calcium mobilization ([3]; Lowe patient fibroblasts (Lowe 1, Lowe 2)) | Calcium mobilization, F340/380 ratio ([3]; Lowe patient keratinocytes compared with normal keratinocytes (NHKC), 0.1 μM agonist) | Calcium flux as measured by F340/380 ratio ([3]; NHF cells, 0.1 μM agonist) | TRPV4-induced calcium flux, ratio of F340/380 ([3]; ciliated HTM cells, 50 mmHg hydrostatic pressure for 3 hours vs 0 mmHg) | IOP [4] [mmHg] |
| --- | --- | --- | --- | --- | --- | --- | --- | --- |
| Cc1c(C(=O)Nc2cccc(C(F)(F)F)c2)cc(-c2ccccc2)n1CCCN1CCOCC1 [HC 067047] | not |  |  |  |  |  |  |  |
| OC(O)C(Cl)(Cl)Cl [chlorohydrate] |  | reduced the elevation of gene transcription in response to pressure |  |  |  |  |  |  |
| CC(C)C[C@H](NC(=O)c1cc2ccccc2s1)C(=O)N1CCN(C(=O)[C@H](CO)NS(=O)(=O)c2ccc(Cl)cc2Cl)CC1 [GSK1016790A, N-((1S)-1-{[4-((2S)-2-{[(2,4-dichlorophenyl)sulfonyl]amino}-3-hydroxypropanoyl)-1-piperazinyl]carbonyl}-3-methylbutyl)-1-benzothiophene-2-carboxamide] | significantly reduced |  | decrease in F340/F380 fura-2 signaling | failed to elicit calcium mobilization | failed to elicit calcium mobilization | elicited | significant decrease in TRPV4-induced calcium flux | 10.3 |
